Broadly, the IC50 is the concentration that gives 50% inhibition. A low value points to inhibition by little substance.

Each structure is given as a SMILES string.

Results on 24 compounds are retold here after ChEMBL document CHEMBL3774305, “Design, synthesis, and biological evaluation of arylpiperazine-benzylpiperidines with dual serotonin and norepinephrine reuptake inhibitory activities” (Bioorg Med Chem, 2016).

What all share (assay type): cell-based
Assay [1] has as its target T1, Sodium-dependent serotonin transporter (Homo sapiens, UniProt P31645). Put plainly: Inhibition of [3H]-5-HT reuptake in human SERT transfected into HEK293 cells at 1 uM by liquid scintillation counting method relative to venlafaxine HCl.
Target sequence in this assay (P31645 whole entry, looked up): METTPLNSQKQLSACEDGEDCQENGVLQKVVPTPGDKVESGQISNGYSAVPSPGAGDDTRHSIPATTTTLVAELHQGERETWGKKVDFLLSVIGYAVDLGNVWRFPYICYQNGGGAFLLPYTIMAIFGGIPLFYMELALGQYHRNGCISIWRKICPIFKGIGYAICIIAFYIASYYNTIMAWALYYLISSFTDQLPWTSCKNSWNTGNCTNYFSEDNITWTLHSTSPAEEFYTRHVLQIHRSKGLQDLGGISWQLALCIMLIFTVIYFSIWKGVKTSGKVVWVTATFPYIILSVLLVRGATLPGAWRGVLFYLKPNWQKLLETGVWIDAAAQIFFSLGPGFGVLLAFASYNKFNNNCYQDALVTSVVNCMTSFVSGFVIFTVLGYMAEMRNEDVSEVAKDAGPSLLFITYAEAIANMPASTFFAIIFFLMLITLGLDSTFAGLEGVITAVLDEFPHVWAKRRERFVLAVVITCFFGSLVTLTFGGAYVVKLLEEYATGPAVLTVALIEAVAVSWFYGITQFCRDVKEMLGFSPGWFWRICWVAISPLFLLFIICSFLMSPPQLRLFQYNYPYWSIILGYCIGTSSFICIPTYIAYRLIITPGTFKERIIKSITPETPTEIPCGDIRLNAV
For assay [2], the target named is T2, Sodium-dependent noradrenaline transporter (Homo sapiens, UniProt P23975). The experiment in a line: Inhibition of [3H]-NE reuptake in human NET transfected into HEK293 cells at 10 uM by liquid scintillation counting method relative to venlafaxine HCl.
In assay [3] the target is T2, Sodium-dependent noradrenaline transporter. Put plainly: Inhibition of [3H]-NE reuptake in human NET transfected into HEK293 cells by liquid scintillation counting method.
Assay [4] has as its target T1, Sodium-dependent serotonin transporter. Put plainly: Inhibition of [3H]-5-HT reuptake in human SERT transfected into HEK293 cells by liquid scintillation counting method.
Target sequence in this assay (P31645 whole entry): as the sequence (P31645 whole entry, looked up) above
The target of assay [5] is T2, Sodium-dependent noradrenaline transporter. Put plainly: Inhibition of [3H]-NE reuptake in human NET transfected into HEK293 cells at 1 uM by liquid scintillation counting method relative to […].

T2 sequence (P23975 whole entry): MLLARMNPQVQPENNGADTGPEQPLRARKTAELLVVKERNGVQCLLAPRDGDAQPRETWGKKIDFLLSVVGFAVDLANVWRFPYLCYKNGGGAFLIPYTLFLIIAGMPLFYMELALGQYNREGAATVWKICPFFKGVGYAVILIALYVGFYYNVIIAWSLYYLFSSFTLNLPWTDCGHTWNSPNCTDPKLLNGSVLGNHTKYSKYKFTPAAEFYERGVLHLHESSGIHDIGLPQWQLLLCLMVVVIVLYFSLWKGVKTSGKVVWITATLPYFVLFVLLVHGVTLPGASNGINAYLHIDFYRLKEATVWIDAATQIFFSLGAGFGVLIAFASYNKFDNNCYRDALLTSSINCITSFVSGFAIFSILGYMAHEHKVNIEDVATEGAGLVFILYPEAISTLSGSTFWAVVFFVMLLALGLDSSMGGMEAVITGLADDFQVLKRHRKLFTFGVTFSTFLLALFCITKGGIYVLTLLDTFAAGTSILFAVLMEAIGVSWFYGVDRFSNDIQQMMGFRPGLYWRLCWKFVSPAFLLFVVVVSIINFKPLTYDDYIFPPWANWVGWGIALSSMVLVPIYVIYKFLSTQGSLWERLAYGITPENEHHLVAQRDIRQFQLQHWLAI

Consider `FC(F)(F)c1ccc(N2CCN(CCCN3CCC(Cc4ccccc4)CC3)CC2)cc1`, for which the results for the fold change (FC) in assay [1] and in assay [2] were 0.76 and 1.34, respectively. The values for the IC50 in assay [3] and in assay [4] were 1170 nM and 2610 nM, respectively.
With `Brc1ccc(N2CCN(CCCN3CCC(Cc4ccccc4)CC3)CC2)cc1`, the values for the fold change (FC) in assay [1] and in assay [2] were 0.87 and 1.6, respectively. Further, the IC50 was found to be 610 nM in assay [3] and 2250 nM in assay [4].
On to `Clc1ccc(N2CCN(CCCN3CCC(Cc4ccccc4)CC3)CC2)c(Cl)c1`, for which the fold change (FC) in assay [1] came to 1.06; in assay [2], 1.45. The figures for the IC50 in assay [3] and in assay [4] were 760 nM and 1460 nM, respectively.
For the compound `Cc1cccc(C)c1N1CCN(CCN2CCC(Cc3ccccc3)CC2)CC1`, the fold change (FC) came out at 0.93 in assay [1] and 1.26 in assay [2].
Take `Clc1ccc(N2CCN(CCN3CCC(Cc4ccccc4)CC3)CC2)c(Cl)c1`: the fold change (FC) was determined as 0.85 in assay [1] and 1.29 in assay [2]. Also, the IC50 amounted to 2500 nM in assay [3] and 4320 nM in assay [4].
In the case of `c1ccc(CC2CCN(CCCN3CCN(c4ccccc4)CC3)CC2)cc1`, the values for the fold change (FC) in assay [1] and in assay [2] were 0.58 and 1.51, respectively. Also, the IC50 in assay [3] amounted to 600 nM; in assay [4], 1360 nM.
Regarding `Fc1ccc(N2CCN(CCCN3CCC(Cc4ccccc4)CC3)CC2)cc1`, the fold change (FC) came out at 0.27 in assay [1] and 1.4 in assay [2].
For the compound `Clc1ccc(N2CCN(CCCN3CCC(Cc4ccccc4)CC3)CC2)cc1`, the results for the fold change (FC) in assay [1] and in assay [2] were 0.44 and 1.46, respectively. Also, the IC50 in assay [3] stood at 530 nM; in assay [4] it was 2030 nM.
Turning to `Clc1cccc(N2CCN(CCCN3CCC(Cc4ccccc4)CC3)CC2)c1`, the results for the fold change (FC) in assay [1] and in assay [2] were 0.69 and 1.41, respectively. In addition, the IC50 is 380 nM in assay [3] and 1180 nM in assay [4].
Consider `c1ccc(CC2CCN(CCN3CCN(c4ncccn4)CC3)CC2)cc1`, for which the results for the fold change (FC) in assay [1] and in assay [5] were 0.33 and -0.05, respectively.
As for `c1ccc(CC2CCN(CCCN3CCN(c4ncccn4)CC3)CC2)cc1`, the fold change (FC) was 0.08 in assay [1] and 1.01 in assay [2].
The corresponding values for `Clc1cccc(N2CCN(CCN3CCC(Cc4ccccc4)CC3)CC2)c1` are 0.41 and 1.29.
In the case of `Clc1cccc(N2CCN(CCCN3CCC(Cc4ccccc4)CC3)CC2)c1Cl`, the figures for the fold change (FC) in assay [1] and in assay [2] were 0.79 and 1.63, respectively. The IC50 in assay [3] is 560 nM; in assay [4] it was 2510 nM.
Regarding `c1ccc(CC2CCN(CCN3CCN(c4ccccc4)CC3)CC2)cc1`, the fold change (FC) in assay [1] was found to be 0.89; in assay [2], 1.
With `COc1ccccc1N1CCN(CCN2CCC(Cc3ccccc3)CC2)CC1`, the fold change (FC) in assay [1] was determined as 0.27; in assay [5] it was 0.2.
Take `Cc1cccc(C)c1N1CCN(CCCN2CCC(Cc3ccccc3)CC2)CC1`: the fold change (FC) in assay [1] is 2.83; in assay [2], 1.37. In addition, the results for the IC50 in assay [3] and in assay [4] were 1070 nM and 2000 nM, respectively.
Turning to `Clc1cccc(N2CCN(CCN3CCC(Cc4ccccc4)CC3)CC2)c1Cl`, the fold change (FC) in assay [1] came to 0.64; in assay [5], 0.41.
`c1ccc(CC2CCN(CCCN3CCN(c4ccccn4)CC3)CC2)cc1`: the figures for the fold change (FC) in assay [1] and in assay [2] were 0.32 and 1.23, respectively.
`Fc1ccc(N2CCN(CCN3CCC(Cc4ccccc4)CC3)CC2)cc1`: the values for the fold change (FC) in assay [1] and in assay [2] were 0.41 and 1.16, respectively.
For `COc1ccccc1N1CCN(CCCN2CCC(Cc3ccccc3)CC2)CC1`, the results for the fold change (FC) in assay [1] and in assay [2] were 2.4 and 1.36, respectively. For the same compound, the IC50 came out at 890 nM in assay [3] and 1760 nM in assay [4].
Taken in the same sequence, the figures for `Brc1ccc(N2CCN(CCN3CCC(Cc4ccccc4)CC3)CC2)cc1` were 1.01, 1.31, 2100 nM and 4920 nM.
Turning to `Clc1ccc(N2CCN(CCN3CCC(Cc4ccccc4)CC3)CC2)cc1`, the fold change (FC) in assay [1] was found to be 0.56; in assay [2] it was 1.18.
On to `c1ccc(CC2CCN(CCN3CCN(c4ccccn4)CC3)CC2)cc1`, for which the fold change (FC) in assay [1] was found to be 0.31; in assay [5] it was 0.08.
Regarding `FC(F)(F)c1ccc(N2CCN(CCN3CCC(Cc4ccccc4)CC3)CC2)cc1`, the fold change (FC) in assay [1] turned out to be 0.69; in assay [2], 1.26.
